Experimental data reported in patent publication USRE38132E1, “Phenylpyrrolidines, phenylimidazolidines,3-phenyl-1,3-oxizolidines and 3-phenyl-1,3-thiazolidines and their use in the treatment of inflammatory disease” (Boehringer Ingelheim Pharmaceuticals, Inc., priority 1997, dated 2003).
pIC50, pKd: −log10 of the molar value. Like-named read-outs stand apart in the source and are kept apart here.

Experiments:
[1] = target: T1, interaction of ICAM-1 with the Leukointegrin CD18/CD11a (LFA-1) (Homo sapiens, UniProt P05107+P20701); test: Assay to determine inhibition of LFA-1 binding to ICAM-1 (immunopurified LFA-1 on plate-bound sICAM-1, ELISA readout); conditions: values marked e approximated from incomplete dose-response curve
T1 construct: endogenous in cells; sICAM-1: made in house, secreted from transfected CHO DUX cells
T1 sequence (P20701 26-1170): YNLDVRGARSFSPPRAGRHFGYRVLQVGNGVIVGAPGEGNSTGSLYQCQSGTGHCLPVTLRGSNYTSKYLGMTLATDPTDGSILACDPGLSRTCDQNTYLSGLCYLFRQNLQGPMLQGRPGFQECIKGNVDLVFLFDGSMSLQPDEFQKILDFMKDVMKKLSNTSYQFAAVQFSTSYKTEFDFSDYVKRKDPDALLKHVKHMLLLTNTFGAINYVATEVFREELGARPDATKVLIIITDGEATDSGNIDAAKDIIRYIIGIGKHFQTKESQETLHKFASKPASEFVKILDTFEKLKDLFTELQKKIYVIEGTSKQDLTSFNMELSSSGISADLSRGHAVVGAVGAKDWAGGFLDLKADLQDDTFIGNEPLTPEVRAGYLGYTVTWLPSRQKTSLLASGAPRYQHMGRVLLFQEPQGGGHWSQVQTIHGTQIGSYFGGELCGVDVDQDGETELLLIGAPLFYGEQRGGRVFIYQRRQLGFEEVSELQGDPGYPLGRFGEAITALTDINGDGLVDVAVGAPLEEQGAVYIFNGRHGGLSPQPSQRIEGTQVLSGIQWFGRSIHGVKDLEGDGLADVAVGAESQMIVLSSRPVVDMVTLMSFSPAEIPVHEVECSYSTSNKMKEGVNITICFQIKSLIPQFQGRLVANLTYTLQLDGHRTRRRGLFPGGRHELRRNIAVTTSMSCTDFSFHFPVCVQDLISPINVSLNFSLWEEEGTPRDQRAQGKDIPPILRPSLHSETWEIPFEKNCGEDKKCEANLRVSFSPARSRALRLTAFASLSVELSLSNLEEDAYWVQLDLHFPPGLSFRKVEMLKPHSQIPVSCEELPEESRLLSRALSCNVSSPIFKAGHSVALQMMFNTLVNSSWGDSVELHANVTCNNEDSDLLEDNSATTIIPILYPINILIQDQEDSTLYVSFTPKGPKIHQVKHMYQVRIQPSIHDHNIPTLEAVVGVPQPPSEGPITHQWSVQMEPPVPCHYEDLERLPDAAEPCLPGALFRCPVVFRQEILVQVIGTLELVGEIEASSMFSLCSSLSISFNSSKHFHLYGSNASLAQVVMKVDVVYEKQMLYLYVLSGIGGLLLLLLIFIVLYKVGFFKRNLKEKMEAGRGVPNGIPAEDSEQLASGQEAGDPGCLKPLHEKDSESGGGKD
T1 sequence (P05107 23-769): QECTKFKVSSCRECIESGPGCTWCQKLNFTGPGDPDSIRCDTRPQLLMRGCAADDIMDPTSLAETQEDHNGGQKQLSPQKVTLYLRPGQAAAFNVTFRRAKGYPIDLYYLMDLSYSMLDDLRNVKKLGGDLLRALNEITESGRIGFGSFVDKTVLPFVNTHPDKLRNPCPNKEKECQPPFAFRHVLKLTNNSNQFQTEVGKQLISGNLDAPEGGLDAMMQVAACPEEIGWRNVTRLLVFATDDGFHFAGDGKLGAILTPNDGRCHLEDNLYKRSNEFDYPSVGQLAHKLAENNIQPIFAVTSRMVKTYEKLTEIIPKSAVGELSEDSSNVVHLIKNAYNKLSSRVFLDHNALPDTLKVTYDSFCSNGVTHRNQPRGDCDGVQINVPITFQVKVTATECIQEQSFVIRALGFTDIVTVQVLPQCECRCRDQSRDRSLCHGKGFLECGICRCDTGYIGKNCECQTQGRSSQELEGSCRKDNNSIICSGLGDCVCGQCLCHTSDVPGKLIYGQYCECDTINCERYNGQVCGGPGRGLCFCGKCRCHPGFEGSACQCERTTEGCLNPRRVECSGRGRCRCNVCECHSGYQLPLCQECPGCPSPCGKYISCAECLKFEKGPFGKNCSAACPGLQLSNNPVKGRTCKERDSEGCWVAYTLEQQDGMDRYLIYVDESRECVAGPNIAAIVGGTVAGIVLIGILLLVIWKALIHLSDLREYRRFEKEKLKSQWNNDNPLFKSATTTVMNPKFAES
Text: Assay to Determine Inhibition of LFA-1 Binding to ICAM-1 Purpose of Assay: This assay protocol is designed to study the direct antagonism, by a test compound, of the interaction of the CAM, ICAM-1 with the Leukointegrin CD18/CD11a (LFA-1). […] After collection and neutralization of fractions from the TS2/4 column, samples are pooled and precleared with Protein G agarose. […] Wells are washed 3 times with Diluting Buffer. The bound LFA-1 is detected by the addition of a polyclonal antibody directed against a peptide corresponding to the CD18 cytoplasmic tail in a 1:100 dilution with Diluting Buffer and 1% BSA and allowed to incubate for 45 min at 37° C. Wells are washed 3 times with Diluting Buffer and the bound polyclonal antibody is detected by the addition of a 1:4000 dilution of horse radish peroxidase conjugated to goat immunoglobulin directed against rabbit immunoglobulin. […] The lack of the addition of LFA-1 to the binding assay is used as a background control for all samples. A dose-response curve is obtained for all test compounds. Results of these tests are reported as Kd's in μM.

[2] = tested on: allogeneic cell transplant response, popliteal lymph node; test: In vivo allogeneic cell transplant model (popliteal lymph node weight); conditions: Mus musculus, po; mice, per os, dose at which 50% inhibition is observed; read-out: Allogeneic Cell Transplantation Assay ACT ED50
Text: In vivo: Allogeneic Cell Transplant Model Purpose of Assay: The ability of cells to recognize other cells from self or from another genetically different individual (non-self) is an important property in maintaining the integrity of tissue and organ structure. The allogeneic cell transplant response is an important model for studies of transplant rejection and immunocompetence. This T-cell-mediated immune response can be induced in adult mice by the injection of lymphocytes from a histoincompatible mouse strain into the footpad . This response is characterized by T-cell proliferation which is limited to the popliteal lymph node that receives drainage from the injected footpad area. No in vitro system can completely duplicate this in vivo response. Thus, this animal model can be used to assess the ability of a test compound to suppress transplant rejection. Description of Assay Protocol: Experiments are conducted using male or female mice (20-26 grams). Any histoincompatible mouse strains suffice for donor and recipient populations. Typically DBA mice are used as donors and […] mice are used as recipients. A minimum of 1 week stabilization and conditioning period is required before use during which time the animals are maintained in accordance with the Animal Resource Center S.O.P. Each study utilizes 36 recipient mice divided into groups of 6. The tests last approximately four days. Donor mice are sacrificed by CO2 asphyxiation and spleens are removed and made into a cell suspension. The cells (1.0·10^7/metatarsal in 0.05 mL) are injected intra dermal (according to standard protocol) into the dorsal metatarsal skin of recipient mice. Four days later, the animals are sacrificed by CO2 asphyxiation and the popliteal nodes are removed and weighed. Groups of mice receiving putative immunosuppressive agents are dosed subcutaneously, intraperitoneally or orally one hour prior to cell injection and daily thereafter according to standard protocol. Student's T-test was used to determine significant differences between popliteal lymph nodes of groups of untreated mice and those mice treated with putative immunosuppressive agents (see: Kroczek, R. A.; Black, C. D. V.; Barbet, […]. Immunology, 1987, 139, 3597). Data are reported as the dose at which 50% inhibition is observed and the manner in which the compound was administered. In Table 23, the following legends are applicable: ^and=not determined. ^bpercent inhibition at 160 μg/mL. ^cno inhibition observed up to highest dose. Exact quantification not always possible due to intrinsic toxicity of compound (see MTT result). ^[…] inhibition (concentration in μM ). ^eapproximated from incomplete dose-response curve. ^fnot determined; compound is a synthesis intermediate.

[3] = tested on: cell bound fibronectin receptor (VLA4) with fibronectin, SKW3 cells; test: Inhibition of SKW3 cell binding to fibronectin (selectivity counter-assay); assay type: cell-based, human
Summary of the method: (§1)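 Compound-treated, PMA-stimulated human T-cell line SKW3 (50 μg/mL PMA final) allowed to adhere for 2 h at 37° C to wells coated with sICAM-1 at 40 μg/mL or fibronectin at 100 μg/mL. After gentle RPMI wash, 50% inhibition concentration or range reported in μM.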

[4] = tested on: cell bound form of LFA-1 (CD18, CD11a) with ICAM-1, SKW3 cells; test: Inhibition of SKW3 cell binding to ICAM-1 (PMA-stimulated); assay type: cell-based, human; conditions: Homo sapiens, read-out: Assay to Detect SKW3 Cells Binding to ICAM IC50
Summary of the method: as §1

[5] = tested on: LFA-1 dependent aggregation of JY cells; test: JY cell homotypic aggregation assay (PMA-stimulated); assay type: cell-based, human; conditions: Homo sapiens
Summary of the method: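 Homotypic aggregation of EBV-transformed JY cells, stimulated by phorbol myristate acetate ([…]), scored visually over time in compound presence at 2·10^5 cells/well in serum-supplemented RPMI 1640. Result given as μM concentration or range inhibiting binding by 50%.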

| Structure (SMILES) | pKd [1] | melting point [°C] | further results |
| --- | --- | --- | --- |
| COc1c(F)c(F)c(CC2(C)NC(=O)N(c3cc(Cl)cc(Cl)c3)C2=O)c(F)c1F (stereo not drawn) [Example 61] | 5.63 | 122 to 123 |  |
| Cc1cc(C)cc(CC2(C)NC(=O)N(c3cc(Cl)cc(Cl)c3)C2=O)c1 (stereo not drawn) [Example 50] | ~4.77 | > 240 |  |
| CC1(Cc2cccc(SC(F)(F)F)c2)NC(=O)N(c2cc(Cl)cc(Cl)c2)C1=O (stereo not drawn) [Example 65] | 5.88 | 170 to 171 |  |
| CC1(Cc2ccc(SC(F)(F)F)cc2)NC(=O)N(c2cc(Cl)cc(Cl)c2)C1=O (stereo not drawn) [Example 60] | 6.64 | 133 to 134 |  |
| CC1(Cc2ccc(-c3ccccc3)cc2)NC(=O)N(c2cc(Cl)cc(Cl)c2)C1=O (stereo not drawn) [Example 49] | 6.59 | 61 to 63 |  |
| CC(=O)N1C(=O)N(c2cc(Cl)cc(Cl)c2)C(=O)[C@@]1(C)Cc1ccc(-c2cccnc2)cc1 [Example 125] | 6.96 |  | ED50 [2]: ~90 mg/kg; Cellular Toxicity Assay MTT LD50 (SKW3 cells): >400 µM; Assay to Detect SKW3 Cells Binding to FIBRONECTIN IC50 ([3]; values marked c: no inhibition observed up to highest dose): No inh^c; pIC50 ([4]; SKW3, values marked c: no inhibition observed up to highest dose): 5.52 to 6.00; pIC50 [5]: 6.40 |
| CC1(Cc2ccc3c(Cl)cc(C(F)(F)F)nc3c2)NC(=O)N(c2cc(Cl)cc(Cl)c2)C1=O (stereo not drawn) [Example 59] | 6.48 | 173 to 174 |  |
| CC1(Cc2ccc(F)c(F)c2)NC(=O)N(c2cc(Cl)cc(Cl)c2)C1=O (stereo not drawn) [Example 54] | 6.38 | 117 to 118 |  |
| CC1(Cc2ccc(C(F)(F)F)c(F)c2)NC(=O)N(c2cc(Cl)cc(Cl)c2)C1=O (stereo not drawn) [Example 62] | 6.80 | 67 to 69 |  |
| CC1(Cc2ccc(F)c(C(F)(F)F)c2)NC(=O)N(c2cc(Cl)cc(Cl)c2)C1=O (stereo not drawn) [Example 69] | ~4.15 | 168 to 170 |  |
| CN1C(=O)N(c2cc(Cl)cc(Cl)c2)C(=O)[C@@]1(C)Cc1ccc(Br)cc1 [Example 271] |  |  | ED50 [2]: ~20 mg/kg; Cellular Toxicity Assay MTT LD50 (SKW3 cells): 250 to 500 µM; Assay to Detect SKW3 Cells Binding to FIBRONECTIN IC50 ([3]; No inh = no inhibition observed up to highest dose, exact quantification not always possible due to intrinsic toxicity): No inh^c; pIC50 ([4]; SKW3): 5.52; pIC50 [5]: 7.00 |
| CC1(Cc2ccc(Cl)c(Cl)c2)NC(=O)N(c2cc(Cl)cc(Cl)c2)C1=O (stereo not drawn) [Example 55] | 6.70 | 150 to 151 |  |
| CC1(Cc2ccc(Cl)s2)NC(=O)N(c2cc(Cl)cc(Cl)c2)C1=O (stereo not drawn) [Example 64] | 5.84 | 55 to 56 |  |
